# According to patent US20240197712A1, “TGF-BETA INHIBITION FOR IMMUNODEFICIENCY VIRUS REACTIVATION FROM LATENCY, ENHANCEMENT OF IMMUNODEFICIENCY VIRUS-SPECIFIC RESPONSES AND IMMUNODEFICIENCY VIRUS CURE” (Northwestern University, priority 2022, published 2024):
# Experiments:
# HIV-Bal = assay: In vitro HIV-1 replication in SupT1 cells and PHA-PBMC (p24 ELISA); assay type: cell-based; conditions: SupT1 cells and PBMC from healthy donors, different concentrations of galunisertib
# Procedure: For control experiments of the impact of galunisertib on HIV infection of SupT1 cells and PBMC, SupT1 cells and PHA-activated PBMC were cultured respectively at 1 and 2 millions/ml in R10 (in presence of 20 U/ml of IL-2 for the PBMC) and infected with 50 TCID50/10^6 cells of HIV-Bal (0.01 MOI). HIV replication was monitored by p24 ELISA.
# primary CD4+ T cells = assay: Primary CD4+ T cell model of HIV-1 latency, p24 ICS; assay type: cell-based, human; conditions: primary CD4+ T cells infected with HIV ADA; PMA 100 ng/ml; TGF-β1 10 ng/ml or galunisertib 1 μM
# Procedure: Next, the impact of TGF-β1 on a primary model of HIV-1 latency was tested using freshly isolated CD4+ T cells. The experiment was based on the model by Berkhout and colleagues (50) with some modifications (FIG. 1F). Specifically, CD4+ T cells were isolated from HIV-1 uninfected, de-identified donor PBMC and activated them with PHA and IL-2 for 3 days before infection via spinoculation with HIV ADA. After extensive wash of the viral inoculum, cells were cultured 48 hrs in presence of T20 (enfuvirtide) to avoid viral spread beyond the cells with initial integrations. The overall initial infection achieved was very low despite the spinoculation step (˜0.1% of p24-gag+ cells, FIGS. 3A-3B).
# Blood from de-identified donors was obtained from the New York Blood Bank and used as source of CD4 T cells for the primary model of HIV latency in vitro. Total CD4+ T cells were isolated with the CD4 T cells isolation kit (Miltenyi) and activated with 5 μg/ml of PHA and 50 U/ml of IL-2 for 3 days. After washing out the PHA, cells were infected with 200TCID50 of HIV-ADA (NIH HIV Reagent Program) in 12 or 24 wells/plates and spinoculated at 1200 g for 2 hrs at 25° C. After additional 3 hrs of incubation at 37° C., viral inoculum was washed and cells plated in presence of T20 (Enfurtivide acetate salt, 1 μM NIH AIDS reagent program). […]
# SIV-env = assay: ImmunoPET/CT with 64Cu-DOTA-F(ab')2 p7D3 anti SIV-env probe, 1-2 weeks galunisertib; assay type: in vivo, rhesus macaques
# Procedure: PET/CT imaging with a 64Cu-DOTA-F(ab′)2 p7D3 anti SIV-env probe were performed before Galunisertib treatment, after 7 days in all macaques and after 14 days in the macaques that were treated for 14 days. Briefly, a solution of 64Cu was incubated with DOTA-F(ab′)2 p7D3 antibody reconstituted with 50 μL of IM NH40Ac, pH of 5.5 and incubated for 1 hour at 37° C.; then purified by ultrafiltration in a desalting spin column (10K MWCO, Thermo Fisher) and finally eluted with sterile saline prior to injection. The labeled probe was injected IV via catheters, 24 h before PET-CT scanning. For taking PET/CT scans, the macaques were sedated with ketamine HCL (10 mg/kg), and/or telazol (4-8 mg/kg) via intramuscular and supplemented with ketamine (5 mg/Kg) as needed to perform the procedure. The macaque's body was immobilized in dorsal recumbency on the scanner table and PET/CT scans were acquired using a Philips Gemini TF64 PET/CT scanner. […]
# PET Image analysis was performed using the MIM software. PETCT fusions were generated scaled according to calculated Standardized Uptake Values. […]
# Regions of interest (ROI) were isolated using a combination of the Region Grow function and manual contouring on a representative scan. […] The signals of the whole body as well as within these ROI were quantified, and Max, Mean, and Total SUVs were calculated for further analyses. […]
# Tregs and Tfh cells = assay: Circulating Treg and Tfh frequencies by flow cytometry; assay type: in vivo, rhesus macaques
# Procedure: Peripheral blood mononuclear cells (PBMCs) collected from 8 macaques at 7 time points spanning Cycle 1 to Cycle 4 (refer to Table 5) were employed for high-parameter flow cytometry staining. Cells from before and after cycle 1 and at the end of cycle 3 were used for Tfh/Treg assay. In both cases, cell fixation and permeabilization for intracellular staining were carried out using the FoxP3 Staining Buffer set (Thermo Fisher Scientific, Carlsbad, CA). The high-dimensional panel consisted of antibodies outlined in Table 4, catering to requirements for surface and intracellular staining, as well as viability assessment. Each antibody was individually titrated to ensure optimal staining conditions. Data acquisition was performed using the FACSymphony A5.2 Spectral Analyzer. Following data collection, spectral compensation was implemented utilizing FlowJo™ v10.8 Software (BD Life Sciences). 60,000 live singlet lymphocytes from each of samples was downsampled to prevent disproportionate representation by samples with higher cell counts, ensuring balanced subsequent analysis. To mitigate batch effects, we utilized the swiftReg Neighbor-Dependent Cluster Registration (NDCR) method available within the SWIFT package(112). This method effectively addresses batch variations while preserving the inherent biological diversity. […] Furthermore, we implemented the Peak Extraction and Cleaning Oriented Quality Control (PeacoQC) procedure (138) in FlowJo™ v10.8 to eliminate low-quality events arising from potential issues like clogs, speed fluctuations, and slow sample uptake. FlowSOM FlowJo plugin was employed for automated cell population identification, preceded by the utilization of Phenograph to obtain optimal cluster numbers for dimensional reduction, for the merged data of All Time points and BC1 vs AC4 merged data respectively. The Supplementary FIG. 29A heatmap illustrates the median fluorescence intensity (MFI) values for all markers across all clusters. […]
smiles,measurement,setting,value
"Cc1cccc(-c2nn3c(c2-c2ccnc4ccc(C(N)=O)cc24)CCC3)n1 [galunisertib, Galunisertib]",HIV-1 growth curves,HIV-Bal,no impact
same,PMA-induced frequency of p24-gag+ cells,primary CD4+ T cells,did not alter
same,macaques with clear extensive viral reactivation in the gut (PET signal),SIV-env; day 7 or 14 of treatment vs baseline,3 of the 7
same,macaques with increased SUVtot in PET/CT images in gut and lymph nodes,"SIV-env; oral galunisertib, aviremic long-term ART-treated macaques",5 out of 7
same,circulating Tfh (CXCR5+PD1+) within total and central memory CD4+ T cells,Tregs and Tfh cells; end of treatment,lower
same,frequency of CD4+ Tregs (CD25high FoxP3+) and CD8+ Tregs,Tregs and Tfh cells; remained higher until end of 3rd cycle,increased after the first cycle
same,expression of CD39 on total and central memory CD4+ T cells,"Tregs and Tfh cells; rhesus monkey, in vivo",lower
